Results: ChEMBL document CHEMBL1287778, “Antifungal agents. Part 5: synthesis and antifungal activities of aminoguanidine derivatives of N-arylsulfonyl-3-acylindoles” (2010)

Tests used:
Type in all cases: functional
[1] = tested on: Fusarium oxysporum f. sp. vasinfectum; experiment: Antifungal activity against Fusarium oxysporum f. sp. vasinfectum assessed as percent inhibition at 100 ug/ml
[2] = tested on: Pyricularia oryzae; experiment: Antifungal activity against Pyricularia oryzae assessed as percent inhibition at 100 ug/ml
[3] = tested on: Alternaria alternata; experiment: Antifungal activity against Alternaria alternata assessed as percent inhibition at 100 ug/ml
[4] = tested on: Alternaria brassicae; experiment: Antifungal activity against Alternaria brassicae assessed as percent inhibition at 100 ug/ml
[5] = tested on: Fusarium graminearum; experiment: Antifungal activity against Fusarium graminearum assessed as percent inhibition at 100 ug/ml
[6] = tested on: Bipolaris sorokiniana; experiment: Antifungal activity against Bipolaris sorokiniana assessed as percent inhibition at 100 ug/ml
[7] = Antifungal activity against Fusarium oxysporum f. sp. cucumerinum assessed as percent inhibition at 100 ug/ml

Row | SMILES | inhibition at 100 µg/mL [1] [%] | inhibition at 100 µg/mL [2] [%] | inhibition at 100 µg/mL [3] [%] | inhibition at 100 µg/mL [4] [%] | inhibition at 100 µg/mL [5] [%] | inhibition at 100 µg/mL [6] [%] | inhibition [7] [%]
1 | CCCCC/C(=N\NC(=N)N)c1cn(S(=O)(=O)c2ccc(C)cc2)c2cc(C)ccc12 | 33.3 | 44.5 | 54.7 | 22.8 | 28.5 | 50.5 | 39.8
2 | C/C(=N\NC(=N)N)c1cn(S(=O)(=O)c2ccccc2)c2ccccc12 | 60 | 74.3 | 73.5 | 40.2 | 37.8 | 75.3 | 49.7
3 | Cc1ccc(S(=O)(=O)n2cc(/C=N/NC(=N)N)c3cc(C#N)ccc32)cc1 | 13 | 16.3 | 15.2 | 10.4 | 13.3 | 17 | 6.55
4 | Cc1ccc(S(=O)(=O)n2cc(/C=N/NC(=N)N)c3c(C)cccc32)cc1 | 41.6 | 72.2 | 70.8 | 49.1 | 48.2 | 72.6 | 44.7
5 | C/C(=N\NC(=N)N)c1cn(S(=O)(=O)c2ccc(C)cc2)c2ccccc12 | 58.3 | 52.3 | 62.9 | 37.9 | 48.8 | 58.4 | 37.2
6 | Cc1cccc2c1c(/C=N/NC(=N)N)cn2S(=O)(=O)c1ccccc1 | 19.9 | 46.8 | 42.5 | 21.1 | 26 | 36.9 | 26.3
7 | Cc1cc(O)no1 [HYMEXAZOL] | 63.2 | 75.1 | 70.8 | 58 | 68 | 61.9 | 60
8 | C/C(=N\NC(=N)N)c1cn(S(=O)(=O)c2cccc([N+](=O)[O-])c2)c2cc(C)ccc12 | 23.2 | 50.7 | 50.6 | 33.3 | 20.6 | 37.6 | 34.9
9 | C/C(=N\NC(=N)N)c1cn(S(=O)(=O)c2ccccc2)c2cccc(C)c12 | 64.9 | 79.6 | 79.2 | 52 | 52.3 | 82.3 | 63.1
10 | CCCCC/C(=N\NC(=N)N)c1cn(S(=O)(=O)c2ccccc2)c2ccccc12 | 30.7 | 52 | 60.6 | 30 | 39.4 | 50.2 | 38.6
11 | Cc1ccc(S(=O)(=O)n2cc(/C=N/NC(=N)N)c3ccccc32)cc1 | 51.8 | 56.7 | 65.3 | 34.9 | 44.1 | 66 | 36.5
12 | N=C(N)N/N=C/c1cn(S(=O)(=O)c2cccc([N+](=O)[O-])c2)c2ccccc12 | 28.6 | 42.3 | 51.1 | 30 | 31.4 | 36.9 | 28
13 | CC/C(=N\NC(=N)N)c1cn(S(=O)(=O)c2ccccc2)c2ccccc12 | 56.7 | 75.6 | 73.8 | 43.3 | 50.5 | 69.2 | 48.4
14 | COc1ccc(S(=O)(=O)n2cc(/C(C)=N/NC(=N)N)c3ccc(C)cc32)cc1 | 24.2 | 43 | 42.5 | 18.2 | 44.8 | 35 | 25.8
15 | N=C(N)N/N=C/c1cn(S(=O)(=O)c2ccccc2)c2ccccc12 | 47.8 | 57.8 | 61.5 | 38.8 | 46.3 | 66.5 | 33.7
16 | Cc1ccc(S(=O)(=O)n2cc(/C=N/NC(=N)N)c3ccc(C)cc32)cc1 | 40.5 | 58.2 | 59.2 | 30.9 | 39 | 46.2 | 43.5
17 | Cc1ccc2c(/C=N/NC(=N)N)cn(S(=O)(=O)c3ccccc3)c2c1 | 40 | 64.2 | 69.2 | 48.4 | 47.8 | 59.5 | 41
18 | C/C(=N\NC(=N)N)c1cn(S(=O)(=O)c2ccc(C)cc2)c2cccc(C)c12 | 55.6 | 84.8 | 83 | 56.9 | 46.6 | 80.6 | 57
19 | N#Cc1ccc2c(c1)c(/C=N/NC(=N)N)cn2S(=O)(=O)c1ccccc1 | 14.1 | 20.1 | 23.4 | 9.09 | 26 | 13.8 | 11.1
